Experimental data from patent publication US9938273B2 (Plexxikon Inc., priority 2015, dated 2018).

Experiments:
c-KIT = target: T1, c-KIT (Homo sapiens, UniProt P10721); experiment: AlphaScreen kinase assay with recombinant enzyme, c-KIT; type: biochemical; details: 100ATP, 8pt, GMean
T1 construct: purchased Millipore 14-559K
Protocol: In order to determine the effect of compounds on FLT3 catalytic activity, kinase assays using recombinant enzymes and AlphaScreen® technology have been established. The catalytic activity of c-kit activity was also measured to determine selectivity of the compounds. When the kinases are catalytically active, they phosphorylate a biotinylated peptide substrate on tyrosine residues. Using AlphaScreen® technology, the ability of the compounds to affect the catalytic activity of the kinases can be measured quantitatively. The peptide substrate is immobilized by the AlphaScreen® Streptavidin Donor beads and, upon phosphorylation by a tyrosine kinase, can bind to AlphaScreen® Anti-Phosphotyrosine (PY20) Acceptor beads. Upon excitation of these beads with laser light at 680 nm, singlet oxygen is produced. This singlet oxygen is rapidly quenched, unless the AlphaScreen® Anti-Phosphotyrosine (PY20) Acceptor beads are in close proximity, in which case a proximity signal can be measured at 580 nm. In the presence of catalytic activity, there is a very strong proximity signal. Selective kinase inhibitors affect a decrease in this proximity signal through a decrease in tyrosine phosphorylation of the peptide substrate.
The assay was performed as summarized below.
Poly (Glu4-Tyr) Peptide, biotin conjugate [Biotin-GG(EEEEY)10EE] (SEQ ID NO: 4)
Final concentration=30 nM
Final concentration for IC50 determination=10 μM (FLT3-D835Y or FLT3-ITD) or 100 μM (c-KIT)
AlphaScreen® Phosphotyrosine (PY20) Assay Kit
Final concentration=10 μg/mL
Dilute compounds in DMSO to 20× final concentration.
Add 1 μl of compound to each well of 384 well reaction plate (Perkin Elmer #6005359).
Mix enzyme and Poly (Glu4-Tyr) Peptide substrate at 1.33× final concentration in assay buffer.
Mix ATP at 5× final concentration in assay buffer.
Add 15 μL enzyme/substrate mixture to the reaction plate.
Add 4 μL of ATP to the reaction plate.
Mix Streptavidin Donor beads at 6× final concentration in Stop/Detection buffer.
Add 5 μL Streptavidin Donor beads to the reaction plate. Centrifuge 1 minute, shake to mix, and incubate at room temperature for 20 minutes.
Mix Anti-Phosphotyrosine (PY20) Acceptor beads at 6× final concentration in Stop/Detection buffer.
Add 5 μL Anti-Phosphotyrosine (PY20) beads to the reaction plate.
Centrifuge 1 minute, shake to mix, and incubate at room temperature for 60 minutes.
Read plate on Wallac EnVision™ 2103 Multilabel Reader.

[1] = target: T2, BA/F3-FLT3-ITD + D835Y cells (Homo sapiens, UniProt P36888, D835Y, cells depend on it, form not given); experiment: Cell proliferation assay (CellTiter-Glo), engineered BA/F3 cells; type: cell-based, murine; details: BaF3 FLT3 ITD/D835Y cells, 3d-Growth; read-out: BaF3_FLT3 ITD/D835Y 3d-Growth: IC50
T2 sequence (P36888 1-993 D835Y): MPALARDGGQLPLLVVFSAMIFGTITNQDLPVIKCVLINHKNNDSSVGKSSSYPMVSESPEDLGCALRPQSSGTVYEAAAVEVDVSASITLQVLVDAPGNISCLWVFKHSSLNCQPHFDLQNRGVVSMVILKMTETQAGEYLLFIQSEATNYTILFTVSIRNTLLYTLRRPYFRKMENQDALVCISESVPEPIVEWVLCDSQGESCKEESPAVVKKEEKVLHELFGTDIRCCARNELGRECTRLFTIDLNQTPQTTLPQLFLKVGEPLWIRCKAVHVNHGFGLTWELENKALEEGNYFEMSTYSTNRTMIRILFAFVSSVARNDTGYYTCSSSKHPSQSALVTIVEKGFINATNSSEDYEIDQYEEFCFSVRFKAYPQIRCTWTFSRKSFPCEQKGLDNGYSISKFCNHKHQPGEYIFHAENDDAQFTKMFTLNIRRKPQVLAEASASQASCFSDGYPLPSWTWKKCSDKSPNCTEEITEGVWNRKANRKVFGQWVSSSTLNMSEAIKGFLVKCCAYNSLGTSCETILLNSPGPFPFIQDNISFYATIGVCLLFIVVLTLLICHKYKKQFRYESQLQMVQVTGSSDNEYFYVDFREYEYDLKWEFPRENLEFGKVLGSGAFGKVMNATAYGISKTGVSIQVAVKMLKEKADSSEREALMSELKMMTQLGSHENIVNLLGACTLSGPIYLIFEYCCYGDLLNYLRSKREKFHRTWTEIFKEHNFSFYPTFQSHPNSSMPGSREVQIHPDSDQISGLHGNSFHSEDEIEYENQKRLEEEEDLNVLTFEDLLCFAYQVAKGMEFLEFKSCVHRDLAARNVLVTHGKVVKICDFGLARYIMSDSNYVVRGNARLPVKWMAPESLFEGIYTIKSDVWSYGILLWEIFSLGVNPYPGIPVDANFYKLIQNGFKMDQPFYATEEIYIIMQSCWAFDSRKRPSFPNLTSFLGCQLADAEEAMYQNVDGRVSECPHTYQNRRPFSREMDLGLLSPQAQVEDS
Description: The FLT3 inhibitors may be assessed using the MOLM-14, Acute Myeloid Leukemia cell line that endogenously expresses FLT3 ITD or derivatives of the human FLT3 AML cell line which acquired the D835Y (activation loop) of F691L (gatekeeper) mutation after selection in escalating doses of the FLT3 Inhibitor AC220. FLT3 inhibitors may also be assessed using cells that are engineered to express mutant FLT3. For engineered cells, murine Ba/F3 cells were transfected with full-length FLT3 ITD/D835Y mutations. The parental BA/F3 cells are dependent upon Interleukin-3 (IL-3) for survival, and introduction of the FLT3 constructs rendered these cells dependent upon FLT3 kinase activity when cultured in the absences of IL-3. Engineered BA/F3 cell growth assays can be performed in either the […] of IL-3, to assess the compound inhibition of FLT3 or to detect the presence of off-target activity, respectively. Inhibitors of FLT3 kinase activity reduce or eliminate the FLT3 oncogenic signaling, resulting in reduced cell proliferation. This inhibition is measured as a function of compound concentration to asses IC50 values.
Cell lines used in proliferation assays are as follows in Table 3:
Cells were seeded at 1×10^4 cells per well of a 96 well cell culture plate in 50 μl of cell culture medium. Compounds were dissolved in DMSO, typically at a concentration of 0.5 mM and were serially diluted 1:3 for a total of eight points and added to the cells to final concentrations of […], 0.0041, 0.0014 and 0.00046 μM in 100 μl cell culture medium (final concentration 0.2% DMSO). […] The cells were incubated at 37° C., 5% CO2 for three days. CellTiter-Glo Buffer (Promega Cell Viability Assay catalog #G7573) and substrate were equilibrated to room temperature, and enzyme/substrate Recombinant Firefly Luciferase/Beetle Luciferin was reconstituted. The cell plates were equilibrated to room temperature for 30 minutes, then lysed by addition of an equivalent volume of the Celltiter-Glo Reagent. The plate was mixed for 10 minutes on a plate shaker to lyse the cells. The plates were read on a Tecan M1000 using Luminescence protocol modified to read 0.1 s per well. The luminescence reading assesses the ATP content, which correlates directly with cell number such that the reading as a function of compound concentration was used to determine the IC50 value.

T1 sequence (P10721 26-976): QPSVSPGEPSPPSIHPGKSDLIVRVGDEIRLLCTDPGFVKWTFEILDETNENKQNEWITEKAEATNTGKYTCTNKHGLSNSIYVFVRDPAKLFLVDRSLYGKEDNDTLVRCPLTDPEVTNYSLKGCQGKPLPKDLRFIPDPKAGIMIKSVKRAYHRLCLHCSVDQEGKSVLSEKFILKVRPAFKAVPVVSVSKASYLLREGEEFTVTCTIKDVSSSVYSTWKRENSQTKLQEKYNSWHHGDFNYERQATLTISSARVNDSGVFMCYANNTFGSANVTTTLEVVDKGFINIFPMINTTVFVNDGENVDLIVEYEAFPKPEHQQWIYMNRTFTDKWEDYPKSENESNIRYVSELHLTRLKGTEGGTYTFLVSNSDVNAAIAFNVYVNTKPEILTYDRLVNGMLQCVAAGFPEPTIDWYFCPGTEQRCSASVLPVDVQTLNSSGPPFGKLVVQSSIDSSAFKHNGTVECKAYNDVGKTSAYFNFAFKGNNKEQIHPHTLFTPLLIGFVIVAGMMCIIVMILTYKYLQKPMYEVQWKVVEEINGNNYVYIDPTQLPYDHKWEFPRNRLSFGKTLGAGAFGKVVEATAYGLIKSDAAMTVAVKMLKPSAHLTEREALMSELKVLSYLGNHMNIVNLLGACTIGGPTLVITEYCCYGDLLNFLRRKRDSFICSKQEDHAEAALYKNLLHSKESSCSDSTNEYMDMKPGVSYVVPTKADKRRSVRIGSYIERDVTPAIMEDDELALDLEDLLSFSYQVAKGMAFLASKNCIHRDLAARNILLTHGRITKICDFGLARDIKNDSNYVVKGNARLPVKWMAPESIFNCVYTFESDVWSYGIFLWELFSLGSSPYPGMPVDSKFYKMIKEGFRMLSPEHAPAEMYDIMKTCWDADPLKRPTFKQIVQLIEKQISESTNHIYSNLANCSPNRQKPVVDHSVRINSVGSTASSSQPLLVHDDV

Structure (SMILES)	IC50 (c-KIT) [µM]	GI50 [1] [µM]
N#CC1(NC(=O)c2cccc(-c3cnc4[nH]c(-c5ccccc5)cc4c3)n2)CC1 [Compound P-0111, N-(1-cyanocyclopropyl)-6-(2-phenyl-1H-pyrrolo[2.3-b]pyridin-5-yl]pyridine-2-carboxamide]	–	0.0001 to 10
N#CC1CCN(S(=O)(=O)c2cccc(-c3cnc4[nH]c(-c5ccccc5)cc4c3)n2)C1 (stereo not drawn) [Compound P-0121, 1-[[6-(2-phenyl-1H-pyrrolo[2,3-b]pyridin-5-yl)-2-pyridyl]sulfonyl]pyrrolidine-3-carbonitrile]	–	0.0001 to 10
N#C[C@@H]1CCN(C(=O)c2cccc(-c3cnc4[nH]c(-c5ccccc5)cc4c3)n2)C1 [Compound P-0122, (3R)-1-[6-(2-phenyl-1H-pyrrolo[2,3-b]pyridin-5-yl)pyridine-2-carbonyl]pyrrolidine-3-carbonitrile]	–	0.0001 to 10
N#CCCNC(=O)c1cccc(-c2cnc3[nH]c(-c4ccccc4)c(Cl)c3c2)n1 [Compound P-0125, 6-(3-chloro-2-phenyl-1H-pyrrolo[2,3-b]pyridin-5-yl)-N-(2-cyanoethyl)pyridine-2-carboxamide]	–	0.0001 to 10
CC(C)(C#N)CNC(=O)c1cccc(-c2cnc3[nH]c(-c4ccccc4)c(Br)c3c2)n1 [Compound P-0126, 6-(3-bromo-2-phenyl-1H-pyrrolo[2,3-b]pyridin-5-yl)-N-(2-cyano-2-methyl-propyl)pyridine-2-carboxamide]	–	0.0001 to 10
CC(C)(C#N)CNC(=O)c1cccc(-c2cnc3[nH]c(-c4ccccc4)c(I)c3c2)n1 [Compound P-0127, N-(2-cyano-2-methyl-propyl)-6-(3-iodo-2-phenyl-1H-pyrrolo[2,3-b]pyridin-5-yl)pyridine-2-carboxamide]	–	0.0001 to 10
CC(C)(C#N)NC(=O)c1cccc(-c2cnc3[nH]c(-c4cnn(C(F)F)c4)cc3c2)n1 [Compound P-0164, N-(2-cyanopropan-2-yl)-6-(2-(1-(difluoromethyl)-1H-pyrazol-4-yl)-1H-pyrrolo[2,3-b]pyridin-5-yl)picolinamide]	50 to 100	–

Now from value to compound:

IC50 (c-KIT) [µM]	GI50 [1] [µM]	Structure (SMILES)
50 to 100	0.0001 to 10	O=C(c1cccc(-c2cnc3[nH]c(-c4ccccc4)cc3c2)n1)N1CCC(F)(F)C1 [Compound P-0093, (3,3-difluoropyrrolidin-1-yl)-[6-(2-phenyl-1H-pyrrolo[2,3-b]pyridin-5-yl)-2-pyridyl]methanone]
10 to 50	0.0001 to 10	COC1CCN(C(=O)c2cccc(-c3cnc4[nH]c(-c5ccccc5)cc4c3)n2)C1 (stereo not drawn) [Compound P-0095, (3-methoxypyrrolidin-1-yl)-[6-(2-phenyl-1H-pyrrolo[2,3-b]pyridin-5-yl)-2-pyridyl]methanone]
10 to 50	0.0001 to 10	CNC(=O)C1CCN(C(=O)c2cccc(-c3cnc4[nH]c(-c5ccccc5)cc4c3)n2)C1 (stereo not drawn) [Compound P-0096, N-methyl-1-[6-(2-phenyl-1H-pyrrolo[2,3-b]pyridin-5-yl)pyridine-2-carbonyl]pyrrolidine-3-carboxamide]
0.0001 to 10	0.0001 to 10	O=C(c1cccc(-c2cnc3[nH]c(-c4ccccc4)cc3c2)n1)N1CCC(n2ccnc2)C1 (stereo not drawn) [Compound P-0097, (3-imidazol-1-ylpyrrolidin-1-yl)-[6-(2-phenyl-1H-pyrrolo[2,3-b]pyridin-5-yl)-2-pyridyl]methanone]
50 to 100	0.0001 to 10	N#CCCNC(=O)c1cccc(-c2cnc3[nH]c(-c4ccccc4)cc3c2)n1 [Compound P-0099, N-(2-cyanoethyl)-6-(2-phenyl-1H-pyrrolo[2,3-b]pyridin-5-yl)pyridine-2-carboxamide]
10 to 50	0.0001 to 10	CC(C)(C#N)CNC(=O)c1cccc(-c2cnc3[nH]c(-c4ccccc4)cc3c2)n1 [Compound P-0100, N-(2-cyano-2-methyl-propyl)-6-(2-phenyl-1H-pyrrolo[2,3-b]pyridin-5-yl)pyridine-2-carboxamide]
10 to 50	0.0001 to 10	N#CC1CCN(C(=O)c2cccc(-c3cnc4[nH]c(-c5ccccc5)cc4c3)n2)C1 (stereo not drawn) [Compound P-0105, 1-[6-(2-phenyl-1H-pyrrolo[2,3-b]pyridin-5-yl)pyridine-2-carbonyl]pyrrolidine-3-carbonitrile]
0.0001 to 10	0.0001 to 10	CN[C@@H]1CCN(C(=O)c2ccc(-c3cnc4[nH]c(-c5ccccc5)cc4c3)s2)C1 [Compound P-0106, [(3R)-3-(methylamino)pyrrolidin-1-yl]-[5-(2-phenyl-1H-pyrrolo[2,3-b]pyridin-5-yl)-2-thienyl]methanone]
50 to 100	0.0001 to 10	CS(=O)(=O)N1CCC(NS(=O)(=O)c2cccc(-c3cnc4[nH]c(-c5ccccc5)cc4c3)n2)C1 (stereo not drawn) [Compound P-0107, N-(1-methylsulfonylpyrrolidin-3-yl)-6-(2-phenyl-1H-pyrrolo[2,3-b]pyridin-5-yl)pyridine-2-sulfonamide]
50 to 100	0.0001 to 10	O=S(=O)(NC1CC1)c1cccc(-c2cnc3[nH]c(-c4ccccc4)cc3c2)n1 [Compound P-0109, N-cyclopropyl-6-(2-phenyl-1H-pyrrolo[2,3-b]pyridin-5-yl)pyridine-2-sulfonamide]
